In patent publication US7745646B2, “Bicyclic heteroaryl inhibitors of PDE4” (Kalypsys, Inc., priority 2006, dated 2010) one finds IC50 data, which are given here for 36 compounds.

The assay addresses T1, PDE4B (Homo sapiens, UniProt Q07343).
T1 construct: hex-histidine (His6) (N); made in house
The assay can be described thus: Novel coupled PDE/AK bioluminescent assay, PDE4B inhibition. It is filed as biochemical. The conditions noted are these: PDE4B catalytic domain.

Molecules are shown by their SMILES. Some results are limits rather than exact numbers.

T1 sequence (Q07343 330-659 limits assumed, species assumed): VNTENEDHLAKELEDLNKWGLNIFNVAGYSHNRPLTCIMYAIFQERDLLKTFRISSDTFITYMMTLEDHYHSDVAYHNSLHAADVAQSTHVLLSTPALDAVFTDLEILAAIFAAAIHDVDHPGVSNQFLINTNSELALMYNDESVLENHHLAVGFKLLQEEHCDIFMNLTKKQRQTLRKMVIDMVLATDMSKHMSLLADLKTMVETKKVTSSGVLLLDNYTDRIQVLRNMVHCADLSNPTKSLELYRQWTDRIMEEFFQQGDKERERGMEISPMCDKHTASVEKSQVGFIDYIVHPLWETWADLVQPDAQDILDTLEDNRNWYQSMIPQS
Text: We developed a novel coupled PDE/AK bioluminescent high-throughput assay to measure the activity of phosphodiesterases. In the PDE/AK assay, the AMP produced from the hydrolysis of cAMP by phosphodiesterase is converted to adenosine diphosphate (ADP) by the phosphotransferase activity of adenylate kinase (also known as ADK or myokinase). Adenylate kinase will catalyze the conversion of 1 mole of AMP and 1 mole of ATP into 2 moles of ADP. Thus the conversion of AMP to ADP will result in the subsequent loss of ATP. The decrease in ATP concentration can be monitored as light output using luciferase in a reaction that requires ATP to produce light. The PDE/AK assay uses luciferase, which catalyzes the production of light from ATP present in the reaction mix. The amount of emitted light is inversely proportional to the level of AMP present in the reaction. Test compounds are incubated with the phosphodiesterases and phosphodiesterase inhibitors will decrease the rate of cAMP hydrolysis and decrease the subsequent production of AMP.
A novel coupled PDE/AK assay was utilized to measure the inhibitory activity of compounds on PDE isoforms. The catalytic domain of PDE4B was fused to an amino-terminus hex-histidine affinity tag and purified. PDE4B enzyme was incubated with compounds for 10 minutes. Cyclic AMP substrate, ATP and adenylate kinase were then added to the PDE enzyme mix and incubated for 45 minutes at room temperature. A commercial ATP detection assay, Perkin Elmer's easyLite ATP detection reagent, was then added to measure the relative amount of ATP present in the reaction. After 10 minute incubation, the luminescent signal was quantitated with either the Perkin Elmer Viewlux or Molecular Devices Acquest or Analyst.

In turn, `COc1ccc2c(Nc3c(Cl)cncc3Cl)cc(=O)oc2c1OCCCCC(=O)O` [Example 43, 5-(4-(3,5-Dichloropyridin-4-ylamino)-7-methoxy-2-oxo-2H-chromen-8-yloxy)pentanoic acid] returned an IC50 of less than 1 µM.
`COc1ccc2c(Nc3c(Cl)cncc3Cl)cc(=O)oc2c1OCCCCCC(=O)O` [Example 44, 6-(4-(3,5-Dichloropyridin-4-ylamino)-7-methoxy-2-oxo-2H-chromen-8-yloxy)hexanoic acid] showed an IC50 of less than 1 µM.
As to `COC(=O)COc1c(OC)ccc2c(Nc3c(Cl)cncc3Cl)cc(=O)oc12` [Example 45, Methyl 2-(4-(3,5-dichloropyridin-4-ylamino)-7-methoxy-2-oxo-2H-chromen-8-yloxy)acetate], the IC50 was less than 1 µM.
Take `CCOC(=O)COc1c(OC)ccc2c(Nc3c(Cl)cncc3Cl)cc(=O)oc12` [Example 46, Ethyl 2-(4-(3,5-dichloropyridin-4-ylamino)-7-methoxy-2-oxo-2H-chromen-8-yloxy)acetate]: the IC50 was less than 1 µM.
Under `COc1ccc2c(Nc3c(Cl)cncc3Cl)cc(=O)oc2c1OCCC1CCCCC1` [Example 47, 8-(2-Cyclohexylethoxy)-4-(3,5-dichloropyridin-4-ylamino)-7-methoxy-2H-chromen-2-one] stands less than 1 µM; under `COc1ccc2c(Nc3c(Cl)cncc3Cl)cc(=O)oc2c1OCCCc1ccccc1` [Example 48, 4-(3,5-Dichloropyridin-4-ylamino)-7-methoxy-8-(3-phenylpropoxy)-2H-chromen-2-one], less than 1 µM.
Consider `COc1ccc2c(Nc3c(Cl)cncc3Cl)cc(=O)oc2c1OCC(=O)O` [Example 49, 2-(4-(3,5-Dichloropyridin-4-ylamino)-7-methoxy-2-oxo-2H-chromen-8-yloxy)acetic acid], for which the IC50 was more than 1 µM.
Compound `COc1ccc2c(Nc3c(Cl)cncc3Cl)cc(=O)oc2c1OC[C@@H]1OC(=O)[C@H]2OC(C)(C)O[C@@H]12` [Example 50, 4-(3,5-Dichloropyridin-4-ylamino)-8-(((3aS,4S,6aS)-2,2-dimethyl-6-oxotetrahydrofuro[3,4-d][1,3]dioxol-4-yl)methoxy)-7-methoxy-2H-chromen-2-one] showed an IC50 of less than 1 µM.
Under `COc1ccc2c(Nc3c(Cl)cncc3Cl)cc(=O)oc2c1OC[C@@H]1OC(=O)[C@@H](O)[C@H]1O` [Example 51, 4-(3,5-Dichloropyridin-4-ylamino)-8-(((2S,3R,4S)-3,4-dihydroxy-5-oxotetrahydrofuran-2-yl)methoxy)-7-methoxy-2H-chromen-2-one] stands less than 1 µM.
Take `COc1ccc2c(Nc3c(Cl)cncc3Cl)cc(=O)oc2c1OCCCCCN1CCN(C)CC1` [Example 52, 4-(3,5-Dichloropyridin-4-ylamino)-7-methoxy-8-(5-(4-methylpiperazin-1-yl)pentyloxy)-2H-chromen-2-one]: the IC50 is less than 1 µM.
On to `COc1ccc2c(Nc3c(Cl)cncc3Cl)cc(=O)oc2c1OCCCCCN1CCOCC1` [Example 53, 4-(3,5-Dichloropyridin-4-ylamino)-7-methoxy-8-(5-morpholinopentyloxy)-2H-chromen-2-one], for which the IC50 is less than 1 µM.
Under `COc1ccc2c(Nc3c(Cl)cncc3Cl)cc(=O)oc2c1OCCCCCN1CCCCC1` [Example 54, 4-(3,5-Dichloropyridin-4-ylamino)-7-methoxy-8-(5-(piperidin-1-yl)pentyloxy)-2H-chromen-2-one] stands less than 1 µM; under `COc1ccc2c(Nc3c(Cl)cncc3Cl)cc(=O)oc2c1OCCCCCN1CCCC1` [Example 55, 4-(3,5-Dichloropyridin-4-ylamino)-7-methoxy-8-(5-(pyrrolidin-1-yl)pentyloxy)-2H-chromen-2-one], less than 1 µM; under `COc1ccc2c(Nc3c(Cl)cncc3Cl)cc(=O)oc2c1OCC(N)=O` [Example 56, 2-(4-(3,5-Dichloropyridin-4-ylamino)-7-methoxy-2-oxo-2H-chromen-8-yloxy)acetamide], less than 1 µM.
The value for `COc1ccc2c(Nc3c(Cl)cncc3Cl)cc(=O)oc2c1OCCCCCC#N` [Example 57, 6-(4-(3,5-Dichloropyridin-4-ylamino)-7-methoxy-2-oxo-2H-chromen-8-yloxy)hexanenitrile] was less than 1 µM; that for `COC(=O)CCCCCOc1c(OC)ccc2c(Nc3c(Cl)cncc3Cl)cc(=O)oc12` [Example 58, Methyl 6-(4-(3,5-dichloropyridin-4-ylamino)-7-methoxy-2-oxo-2H-chromen-8-yloxy)hexanoate] was less than 1 µM.
As to `COC(=O)CCCCCOc1c(OC)ccc2c(N(C)c3c(Cl)cncc3Cl)cc(=O)oc12` [Example 59, Methyl 6-(4-((3,5-dichloropyridin-4-yl)(methyl)amino)-7-methoxy-2-oxo-2H-chromen-8-yloxy)hexanoate], the IC50 was more than 1 µM.
In turn, `COc1ccc2c(Nc3c(Cl)cncc3Cl)cc(=O)oc2c1O[C@@H]1O[C@H](COC(C)=O)[C@@H](OC(C)=O)[C@H](OC(C)=O)[C@H]1OC(C)=O` [Example 60, (2R,3R,4S,5R,6S)-2-(Acetoxymethyl)-6-(4-(3,5-dichloropyridin-4-ylamino)-7-methoxy-2-oxo-2H-chromen-8-yloxy)tetrahydro-2H-pyran-3,4,5-triyl triacetate] registered an IC50 of less than 1 µM.
The value for `COc1ccc2c(Nc3c(Cl)cncc3Cl)cc(=O)oc2c1OCCCCCOC(C)=O` [Example 61, 5-(4-(3,5-Dichloropyridin-4-ylamino)-7-methoxy-2-oxo-2H-chromen-8-yloxy)pentyl acetate] was less than 1 µM; that for `COc1ccc2c(Nc3c(Cl)cncc3Cl)cc(=O)oc2c1OCCOCCBr` [Example 62, 8-(2-(2-Bromoethoxy)ethoxy)-4-(3,5-dichloropyridin-4-ylamino)-7-methoxy-2H-chromen-2-one] was less than 1 µM; that for `COc1ccc2c(Nc3c(Cl)cncc3Cl)cc(=O)oc2c1OCCCCCc1nn[nH]n1` [Example 63, 8-(5-(2H-Tetrazol-5-yl)pentyloxy)-4-(3,5-dichloropyridin-4-ylamino)-7-methoxy-2H-chromen-2-one] was less than 1 µM.
The compound `COc1ccc2c(Nc3c(Cl)cncc3Cl)cc(=O)oc2c1OC` [Example 64, 4-(3,5-Dichloropyridin-4-ylamino)-7,8-dimethoxy-2H-chromen-2-one] came in with a concentration for half-maximal inhibition (IC50) of less than 1 µM.
Under `COc1ccc2c(Nc3c(Cl)cncc3Cl)cc(=O)oc2c1OCCCCCCC(=O)O` [Example 65, 7-(4-(3,5-Dichloropyridin-4-ylamino)-7-methoxy-2-oxo-2H-chromen-8-yloxy)heptanoic acid] stands less than 1 µM; under `COc1ccc2c(Nc3c(Cl)cncc3Cl)cc(=O)oc2c1OCCCCCCCC(=O)O` [Example 66, 8-(4-(3,5-Dichloropyridin-4-ylamino)-7-methoxy-2-oxo-2H-chromen-8-yloxy)octanoic acid], less than 1 µM.
The compound `COc1ccc2c(Nc3c(Cl)cncc3Cl)cc(=O)oc2c1OCCCCCCCCC(=O)O` [Example 67, 9-(4-(3,5-Dichloropyridin-4-ylamino)-7-methoxy-2-oxo-2H-chromen-8-yloxy)nonanoic acid] came in with a half-inhibitory concentration (IC50) of less than 1 µM.
Under `COc1ccc2c(Nc3c(Cl)cncc3Cl)cc(=O)oc2c1OCCCCCN` [Example 68, 8-(5-Aminopentyloxy)-4-(3,5-dichloropyridin-4-ylamino)-7-methoxy-2H-chromen-2-one] stands less than 1 µM; under `COc1ccc2c(Nc3c(Cl)cncc3Cl)cc(=O)oc2c1OCCOCCN(C)C` [Example 69, 4-(3,5-Dichloropyridin-4-ylamino)-8-(2-(2-(dimethylamino)ethoxy)ethoxy)-7-methoxy-2H-chromen-2-one], less than 1 µM.
`COc1ccc2c(Nc3c(Cl)cncc3Cl)cc(=O)oc2c1OCCCCN1CCN(C)CC1` [Example 70, 4-(3,5-Dichloropyridin-4-ylamino)-7-methoxy-8-(4-(4-methylpiperazin-1-yl)butoxy)-2H-chromen-2-one] gave an IC50 of less than 1 µM.
`COc1ccc2c(Nc3c(Cl)cncc3Cl)cc(=O)oc2c1OCCCCN1CCOCC1` [Example 71, 4-(3,5-Dichloropyridin-4-ylamino)-7-methoxy-8-(4-morpholinobutoxy)-2H-chromen-2-one] yielded an IC50 of less than 1 µM.
The value for `COc1ccc2c(Nc3c(Cl)cncc3Cl)cc(=O)oc2c1OCCCCCO` [Example 72, 4-(3,5-Dichloropyridin-4-ylamino)-8-(5-hydroxypentyloxy)-7-methoxy-2H-chromen-2-one] was less than 1 µM; that for `COc1ccc2c(Nc3c(Cl)cncc3Cl)cc(=O)oc2c1OCCCCO` [Example 73, 4-(3,5-Dichloropyridin-4-ylamino)-8-(4-hydroxybutoxy)-7-methoxy-2H-chromen-2-one] was less than 1 µM.
Regarding `COc1ccc2c(Nc3c(Cl)cncc3Cl)cc(=O)oc2c1OCCCCCOc1c(OC)ccc2c(Nc3c(Cl)cncc3Cl)cc(=O)oc12` [Example 74, 8,8′-(Pentane-1,5-diylbis(oxy))bis(4-(3,5-dichloropyridin-4-ylamino)-7-methoxy-2H-chromen-2-one)], the IC50 was less than 1 µM.
For the compound `COc1ccc2c(Nc3c(Cl)cncc3Cl)cc(=O)oc2c1OCCCCCO[C@@H]1O[C@H](COC(C)=O)[C@@H](OC(C)=O)[C@H](OC(C)=O)[C@H]1OC(C)=O` [Example 75, (2R,3R,4S,5R,6R)-2-(Acetoxymethyl)-6-(5-(4-(3,5-dichloropyridin-4-ylamino)-7-methoxy-2-oxo-2H-chromen-8-yloxy)pentyloxy)tetrahydro-2H-pyran-3,4,5-triyl triacetate], the IC50 was less than 1 µM.
For `COc1ccc2c(Nc3c(Cl)cncc3Cl)cc(=O)oc2c1OC/C=C\CO` [Example 76, (Z)-4-(3,5-Dichloropyridin-4-ylamino)-8-(4-hydroxybut-2-enyloxy)-7-methoxy-2H-chromen-2-one], the IC50 was less than 1 µM.
The value for `COc1ccc2c(Nc3c(Cl)cncc3Cl)cc(=O)oc2c1O[C@@H]1O[C@H](CO)[C@@H](O)[C@H](O)[C@H]1O` [Example 77, 4-(3,5-Dichloropyridin-4-ylamino)-7-methoxy-8-((2S,3R,4S,5S,6R)-3,4,5-trihydroxy-6-(hydroxymethyl)tetrahydro-2H-pyran-2-yloxy)-2H-chromen-2-one] was more than 1 µM; that for `COc1ccc2c(Nc3c(Cl)cncc3Cl)cc(=O)oc2c1OCCCCCC(N)=O` [Example 78, 6-(4-(3,5-Dichloropyridin-4-ylamino)-7-methoxy-2-oxo-2H-chromen-8-yloxy)hexanamide] was less than 1 µM.

In general, IC50 refers to the point on the concentration scale where inhibition reaches its midpoint. Higher therefore signals lower potency.
